Measurements reported in patent US12337003B2, “Pharmaceutical compositions for combination therapy” (Intercept Pharmaceuticals, Inc., priority 2015, dated 2025).

Experiments:
[1] = system: fibrosis induced by common bile duct ligation in mice; test: Bile duct ligation (BDL) model, Sirius-red staining of liver sections; type: in vivo, C57BL/6 mice; details: mean ± SD, OCA 5 mg/kg and/or atorvastatin 10 mg/kg orally once daily day 0 to day 6
Experimental: This experiment was performed to evaluate the effects of OCA and atorvastatin alone, and in combination, on fibrosis induced by common bile duct ligation in mice.
Male C57BL/6 mice (6 weeks of age) were obtained from Japan SLC. The animals were maintained in a specific pathogen free facility under controlled conditions of temperature (23±2° C.), humidity (45±10%), lighting (12-hour artificial light and dark cycles; light from 8:00 to 20:00), and air exchange (air exchange rate: more than 40 times/hour). A high pressure (20±4 Pa) was maintained in the experimental room to prevent contamination of the facility. The animals were housed in KN-600 (Natsume Seisakusho, Japan) with a maximum of 6 mice per cage. […]
Viability, clinical signs and behavior were monitored daily. Body weight was recorded daily during the treatment period. Food consumption was measured twice weekly per cage during the treatment period. […]
To visualize collagen deposition, Bouin's-fixed left lateral liver sections were stained using picro-Sirius red solution (Waldeck, Germany). For quantitative analysis of the fibrosis area, bright field images of Sirius red-stained sections were captured around the central vein using a digital camera (DFC295; Leica, Germany) at 100-fold magnification, and the positive areas in 5 fields/section were measured using ImageJ software (National Institute of Health, USA). […]

[2] = system: intestinal tissue of two animal models of inflammatory bowel disease (DSS and trinitrobenzene sulfonic acid); details: DSS and trinitrobenzene sulfonic acid models (Gadaleta 2011); cited from earlier work
[3] = system: patients with non-cirrhotic, non-alcoholic steatohepatitis; test: Randomized placebo-controlled clinical trial in non-alcoholic steatohepatitis; type: in vivo, humans; details: at 24 weeks; 25 mg daily orally vs placebo; 95% CI −45 to −3
Experimental: A multicenter, double-blind, placebo-controlled, parallel group, randomized clinical trial was conducted in patients with non-cirrhotic, non-alcoholic steatohepatitis to assess treatment with obeticholic acid given orally (25 mg daily) or placebo for 72 weeks. Patients were randomly assigned 1:1 using a computer-generated, centrally administered procedure, stratified by clinical center and diabetes status. The primary outcome measure was improvement in centrally scored liver histology defined as a decrease in non-alcoholic fatty liver disease activity score by at least 2 points without worsening of fibrosis from baseline to the end of treatment. Change in alanine aminotransferase at 24 weeks was measured: relative change in alanine aminotransferase −24%, 95% CI −45 to −3.
Patients were enrolled in the study according to the following inclusion criteria: 18 years or older at the time of screening, histological evidence of definite or borderline non-alcoholic steatohepatitis based upon a liver biopsy obtained 90 days or less before randomization, and a histological non-alcoholic fatty liver disease (NAFLD) activity score of 4 or more with a score of 1 or more in each component of the score (steatosis scored 0-3, ballooning 0-2, and lobular inflammation 0-3). Grading and staging of biopsies for the purposes of enrollment were carried out at the site of enrollment. […]

SMILES: CC[C@H]1[C@@H](O)[C@@H]2[C@H](CC[C@]3(C)[C@@H]([C@H](C)CCC(=O)O)CC[C@@H]23)[C@@]2(C)CC[C@@H](O)C[C@@H]12 [OCA, 3α,7α-dihydroxy-6α-ethyl-5β-cholan-24-oic acid]
- Sirius red-positive area (%) [1]: 2.06 ± 0.37%
- inflammatory infiltrates in intestinal tissue [2]: inhibition of inflammatory infiltrates
- relative change in alanine aminotransferase [3]: −24%
